Assay results from patent publication US20260226060A1, “SALTS AND CRYSTALLINE FORMS OF COMPOUND A, METHODS OF PREPARATION, AND USES THEREOF” (SHENZHEN NEWDEL BIOTECH CO., LTD., priority 2023, published 2026).
Where two headings read alike, the source gives them in different places.

Legend:
[1] = Polymorph screening: cooling crystallization; type: physicochemical; details: for solid obtained by cooling crystallization: solution in methanol
Experimental: It was filtered through a microfilm into clear vials. The solution was divided into two equal parts, one part of filtrate was placed in a refrigerator (5° C.) for rapid cooling, and the other part of filtrate was placed in a heating metal module with a power off and naturally cooled to room temperature.

[2] = Solid state stability at 60° C. (closed) and 40° C./75% RH (open), XRPD and HPLC purity; type: physicochemical
Experimental: (closed) and 40° C./75 RH (open) for 14 days, XRPD analysis and purity analysis were performed at various points of time, and solid-state stability was evaluated.
(§1) HPLC analysis was performed by using an Agilent HPLC 1260 series instrument and the HPLC methods used for solubility and stability determinations were shown in Tables 33 and 34, respectively.

[3] = Tableting stability (40 Mpa, 1 min; XRPD); type: physicochemical
[4] = Short-term physical stability of anhydrous crystal forms (40° C./75% RH, open, 1 day; XRPD); type: physicochemical
Excerpt: In addition to the mesylate crystalline form I, the other anhydrous crystalline forms were stable under high humidity conditions.

[5] = Polymorph screening: trituration for 3 or 7 days at room temperature or 50° C.; type: physicochemical
physchem = details: water, thermodynamic from solid
[6] = Polymorph screening: antisolvent precipitation; type: physicochemical; details: for Results Wet sample: Vsolvent/Vanti-solvent 1/10
Experimental: An anti-solvent was gradually added thereto until a solid precipitated or a solvent volume of was added.

[7] = Mechanical grinding stability (XRPD); type: physicochemical; details: ground in a mortar 5 minutes, samples at 2 and 5 minutes
[8] = Dynamic vapor sorption (DVS) hygroscopicity; type: physicochemical
Experimental: The water vapor sorption/desorption data of the samples were collected on a dynamic vapor sorption instrument (proUmid GmbH & Co. KG, Germany). Approximately 50-70 mg of sample was placed in a sample pan previously tared and the weight of the sample was measured accurately.

[9] = Solubility analysis in biological solvents (SGF, FaSSIF, FeSSIF) and water, with pH and XRPD of residual solid; type: physicochemical; details: for Solubility: 37° C., target 5 mg/mL
Experimental: as §1

[10] = Polymorph screening: evaporating crystallization; type: physicochemical; details: for Results (quick volatilization −1 h) Wet sample: saturated solution (50° C. to room temperature)
[11] = 60° C./closed and 40° C./75% RH, 7 days

SMILES: Cc1c(C#Cc2cnc3ccc(N4CCC(O)CC4)nn23)cccc1C(=O)Nc1cc(Cl)cc(C(F)(F)F)c1 [Fumarate crystalline form I]
- new crystalline form by cooling crystallization (XRPD) [1]: no new crystalline form was obtained
- solid obtained by cooling crystallization ([1]; rapid cooling (5° C.)): dissociated into free base form 1
- solid obtained by cooling crystallization ([1]; slow cooling to room temperature): into free base form 2
- Purity in stability evaluation ([2]; 0 d): 99.14 Area %
- Solid state stability-14 days ([2]; 60° C./Closed and 40° C./75% RH (Open), 14 days): physically and chemically stable
- change in crystalline form, 7 days [2, 11]: No change in crystalline form was observed
- chemical purity, 7 days [2, 11]: remained unchanged
- solid stability, 7 days [2, 11]: physicochemically stable
- Purity in stability evaluation ([2]; 7 d-40° C./75% RH): 99.13 Area %
- XRPD in stability evaluation ([2]; 7 d-40° C./75% RH): unchanged
- Purity in stability evaluation ([2]; 7 d-60° C./capped): 99.14 Area %
- XRPD in stability evaluation ([2]; 7 d-60° C./capped): unchanged
- Purity in stability evaluation ([2]; 14 d-40° C./75% RH): 99.13 Area %
- XRPD in stability evaluation ([2]; 14 d-40° C./75% RH): unchanged
- Purity in stability evaluation ([2]; 14 d-60° C./capped): 99.13 Area %
- XRPD in stability evaluation ([2]; 14 d-60° C./capped): unchanged
- crystalline form after tableting (XRPD) [3]: unchanged
- crystallinity after tableting (XRPD) [3]: slightly reduced
- XPRD Results after short-term physical stability [4]: unchanged
- new crystalline form by trituration (XRPD) ([5]; 30 mg/mL suspension, room temperature or 50° C., 3 or 7 days): no new fumarate crystalline form was formed
- dissociation on trituration ([5]; in alcohol, water, 2-Me-THF, MTBE and acetone): dissociated into free base crystalline form VII
- Solubility (physchem; Solubility): < 600 µg/mL
- Solubility (physchem; solubility): < 5000 µg/mL
- new crystalline form by antisolvent precipitation (XRPD) ([6]; from MeOH, THF or DMSO): no new crystalline form was obtained
- Results Wet sample ([6]; solvent DMSO (100 mg/mL, 0.2 mL), anti-solvent EA, batch 073-C1): clear solution
- Results Wet sample ([6]; solvent DMSO (100 mg/mL, 0.2 mL), anti-solvent IPAC, batch 073-C2): clear solution
- Results Wet sample ([6]; solvent DMSO (100 mg/mL, 0.2 mL), anti-solvent MTBE, batch 073-C4): clear solution
- Results Wet sample ([6]; solvent MeOH (Saturated, 0.3 mL), anti-solvent MTBE, batch 073-A2): clear solution
- Results Wet sample ([6]; solvent THF (25 mg/mL, 0.4 mL), anti-solvent EA, batch 073-B1): clear solution
- crystal form after grinding (XRPD) [7]: not changed
- crystallinity after grinding (XRPD) [7]: not obviously reduced
- crystalline form after DVS analysis (XRPD) [8]: remained unchanged
- hygroscopicity (DVS) [8]: substantially non-hygroscopic
- DVS The weight gains by vapor sorption % ([8]; 80% RH): 0.2, 0.2%
- DVS The weight gains by vapor sorption % ([8]; 90% RH): 0.2, 0.2%
- DVS The weight gains by vapor sorption % ([8]; 90% RH, listed as fumarate crystalline form I): 0.2/0.2%
- hygroscopicity (DVS) ([8]; listed as fumarate crystalline form I): almost non-hygroscopic
- hygroscopicity (DVS) ([8]; listed as fumarate form crystalline I): almost non-hygroscopic
- pH in solubility analysis ([9]; FaSSIF (medium pH 6.5), 0.5 h): 6.3
- pH in solubility analysis ([9]; FaSSIF (medium pH 6.5), 2 h): 6.2
- pH in solubility analysis ([9]; FaSSIF (medium pH 6.5), 24 h): 6.0
- XRPD of residual solid in solubility analysis ([9]; FaSSIF, 0.5 h): unchanged
- Solubility ([9]; FaSSIF, 0.5 h): 0.011 mg/mL
- Solubility ([9]; FaSSIF, 0.5 h, listed as fumarate crystalline form I): 0.011/0.011/ mg/mL
- Solubility ([9]; FaSSIF, 2 h): 0.011 mg/mL
- Solubility ([9]; FaSSIF, 2 h, listed as fumarate crystalline form I): 0.011/0.011/ mg/mL
- XRPD of residual solid in solubility analysis ([9]; FaSSIF, 24 h): unchanged
- Solubility ([9]; FaSSIF, 24 h): 0.022 mg/mL
- pH in solubility analysis ([9]; FeSSIF (medium pH 5.0), 0.5 h): 5.0
- pH in solubility analysis ([9]; FeSSIF (medium pH 5.0), 2 h): 5.0
- pH in solubility analysis ([9]; FeSSIF (medium pH 5.0), 24 h): 5.0
- Solubility ([9]; FeSSIF, 0.5 h): 0.197 mg/mL
- Solubility ([9]; FeSSIF, 0.5 h, listed as fumarate crystalline form I): 0.197 mg/mL
- Solubility ([9]; FeSSIF, 2 h): 0.175 mg/mL
- Solubility ([9]; FeSSIF, 2 h, listed as fumarate crystalline form I): 0.175 mg/mL
- XRPD of residual solid in solubility analysis ([9]; FeSSIF, 24 h): unchanged
- Solubility ([9]; FeSSIF, 24 h): 0.530 mg/mL
- pH in solubility analysis ([9]; SGF (medium pH 1.2), 0.5 h): 1.3
- pH in solubility analysis ([9]; SGF (medium pH 1.2), 2 h): 1.4
- pH in solubility analysis ([9]; SGF (medium pH 1.2), 24 h): 1.3
- XRPD of residual solid in solubility analysis ([9]; SGF, 0.5 h): unchanged
- Solubility ([9]; SGF, 0.5 h): <LOD
- Solubility ([9]; SGF, 0.5 h, listed as fumarate crystalline form I): <LOD/<LOD/
- Solubility ([9]; SGF, 2 h): <LOD
- Solubility ([9]; SGF, 2 h, listed as fumarate crystalline form I): <LOD/<LOD/
- XRPD of residual solid in solubility analysis ([9]; SGF, 24 h): unchanged
- Solubility ([9]; SGF, 24 h): <LOD
- Solid form of residual solids in solubility analysis ([9]; summary over water, SGF, FaSSIF, FeSSIF): remained unchanged
- pH in solubility analysis ([9]; water (medium pH 6.6), 0.5 h): 4.6
- pH in solubility analysis ([9]; water (medium pH 6.6), 2 h): 4.3
- pH in solubility analysis ([9]; water (medium pH 6.6), 24 h): 4.2
- XRPD of residual solid in solubility analysis ([9]; water, 0.5 h): unchanged
- Solubility ([9]; water, 0.5 h): <LOD
- Solubility ([9]; water, 0.5 h, listed as fumarate crystalline form I): <LOD/<LOD/
- Solubility ([9]; water, 2 h): <LOD
- Solubility ([9]; water, 2 h, listed as fumarate crystalline form I): <LOD/<LOD/
- XRPD of residual solid in solubility analysis ([9]; water, 24 h): unchanged
- Solubility ([9]; water, 24 h): <LOD
- new crystalline form by evaporating crystallization (XRPD) ([10]; quick and slow evaporation): no new crystalline form was obtained
- Results (quick volatilization −1 h) Wet sample ([10]; solvent EtOH, batch 071-A2): amorphous
- Results (quick volatilization −1 h) Wet sample ([10]; solvent MeOH, batch 071-A1): free base form 1
